Experimental data reported in patent publication US12403114B2, “Cannabinoid acid ester compositions and uses thereof” (EPM (IP), INC., priority 2019, dated 2025).

System: DSS induced acute colitis
Assay: DSS induced acute colitis mouse model, EPM-301 versus EPM-302, Example 13
Type: in vivo, C57BL/6 mice
Protocol: Colitis was induced in 10 weeks old female C57BL/6 mice using dextran sodium sulphate (DSS). Mice were fed for 8 days with 2% (wt/vol) DSS in their drinking water. […] EPM-302 served as an additional control.
Weight loss was measured on days 1, 3, 5, 8, and 10.
Next, the mice were sacrificed and the length of their colons were measured.
Cytokine levels of IL-6 and TNFα were measured using ELISA kits (R&D Systems, USA). Colon TNFα (FIG. 19), blood IL-6 (FIG. 20), levels were lower in mice treated with CBDA-Me (EPM-301) as compared to EPM-302. Similarly, the MEICS score of EPM-301 treated subjects were also lower than EPM-302 treated subjects (FIG. 21). Representative photos of colonoscopy can be seen in FIG. 22A-22D.

**Q.** With C=C(C)[C@@H]1CCC(C)=CC1c1c(O)cc(CCCCC)c(C(=O)OC)c1O (stereo partly drawn) [EPM-301, cannabidiolic acid methyl ester] as the compound, how does the therapeutic effect (10 mg/kg) read?
**A.** not enough to induce a therapeutic effect

**Q.** And the weight loss (40 mg/kg by gavage, compared to CBD and EPM-302 (FIG. 17))?
**A.** reduced

**Q.** And the colon length (40 mg/kg, versus EPM-302 and untreated mice, similar to prednisone (FIG. 18))?
**A.** greater/longer

**Q.** What about the “colon TNFα” value (as compared to EPM-302, ELISA (FIG. 19)) of the same compound?
**A.** lower

**Q.** And the “blood IL-6” value (as compared to EPM-302, ELISA (FIG. 20))?
**A.** lower

**Q.** And the MEICS score (versus EPM-302 treated subjects (FIG. 21))?
**A.** lower
